Article PMC5503199 (Molecular microbiology, 2009)
Where two headings read alike, the source gives them in different places.

Columns and labels:
BetX with CbcWV = biological target: T1, BetX with CbcWV (Pseudomonas aeruginosa, UniProt Q9HZ04); experiment: Competitive uptake, MKH13 expressing cbcWV and betX; format: cell-based; conditions: pNcbcWV, pT-PA3236, SBP BetX, [^14C]betaine 10 μM, competitor 1 mM
T1 sequence (Q9HZ04 26-285): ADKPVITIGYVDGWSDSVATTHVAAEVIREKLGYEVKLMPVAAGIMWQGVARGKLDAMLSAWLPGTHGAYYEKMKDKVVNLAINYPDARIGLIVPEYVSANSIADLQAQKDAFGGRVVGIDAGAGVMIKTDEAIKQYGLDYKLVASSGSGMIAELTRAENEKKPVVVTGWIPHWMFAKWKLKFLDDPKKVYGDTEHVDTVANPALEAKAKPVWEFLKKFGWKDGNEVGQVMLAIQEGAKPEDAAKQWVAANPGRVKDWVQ
T1 sequence (Q9HTI7 1-279 partner): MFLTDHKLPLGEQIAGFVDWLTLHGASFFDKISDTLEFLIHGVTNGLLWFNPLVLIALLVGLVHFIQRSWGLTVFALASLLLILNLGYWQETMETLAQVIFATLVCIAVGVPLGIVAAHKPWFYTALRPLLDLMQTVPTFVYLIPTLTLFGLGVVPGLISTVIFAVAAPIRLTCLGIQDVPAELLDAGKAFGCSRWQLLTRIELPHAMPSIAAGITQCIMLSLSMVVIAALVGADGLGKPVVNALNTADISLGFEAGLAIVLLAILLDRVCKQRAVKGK
T1 sequence (Q9HTI8 1-392 partner): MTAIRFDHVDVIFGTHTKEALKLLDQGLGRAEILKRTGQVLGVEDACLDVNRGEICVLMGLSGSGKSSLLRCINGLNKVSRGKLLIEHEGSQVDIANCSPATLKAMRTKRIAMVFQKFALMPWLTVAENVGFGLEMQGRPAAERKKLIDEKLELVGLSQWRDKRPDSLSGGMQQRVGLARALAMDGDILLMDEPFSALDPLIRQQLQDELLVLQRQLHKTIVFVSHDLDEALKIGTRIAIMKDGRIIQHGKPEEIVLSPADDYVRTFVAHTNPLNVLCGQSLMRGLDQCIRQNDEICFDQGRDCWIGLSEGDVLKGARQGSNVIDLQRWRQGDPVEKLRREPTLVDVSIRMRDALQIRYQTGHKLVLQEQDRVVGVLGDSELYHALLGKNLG

[1] = tested on: Cbc core transporter CbcWV (PAO1) with chromosomally encoded SBPs; format: cell-based, Pseudomonas aeruginosa; conditions: pNcbcWV
CbcXWV from DC3000 = format: cell-based, Pseudomonas syringae pv. tomato; conditions: Acella, pET-cbcDC3000; 1 mM IPTG; substrate 1 mM; mean (SE), n = 10
[2] = tested on: P. syringae BT-derived mutants; format: cell-based, Pseudomonas syringae pv. syringae; conditions: pN
ChoXWV = biological target: T2, ChoXWV (Sinorhizobium meliloti, UniProt Q92N37); experiment: Competitive uptake, MKH13 expressing choXWV; format: cell-based; conditions: pNchoXWV, SBP ChoX, [^14C]choline 10 μM, competitor 1 mM
T2 sequence (Q92N37 28-318): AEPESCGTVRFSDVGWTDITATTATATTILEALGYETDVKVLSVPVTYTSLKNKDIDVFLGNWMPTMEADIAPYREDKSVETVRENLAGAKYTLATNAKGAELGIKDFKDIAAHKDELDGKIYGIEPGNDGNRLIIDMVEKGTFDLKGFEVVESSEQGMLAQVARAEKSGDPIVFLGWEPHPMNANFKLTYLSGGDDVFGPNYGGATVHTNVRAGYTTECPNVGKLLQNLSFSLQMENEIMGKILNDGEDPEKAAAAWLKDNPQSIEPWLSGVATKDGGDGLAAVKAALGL
T2 sequence (Q92N36 1-281 partner): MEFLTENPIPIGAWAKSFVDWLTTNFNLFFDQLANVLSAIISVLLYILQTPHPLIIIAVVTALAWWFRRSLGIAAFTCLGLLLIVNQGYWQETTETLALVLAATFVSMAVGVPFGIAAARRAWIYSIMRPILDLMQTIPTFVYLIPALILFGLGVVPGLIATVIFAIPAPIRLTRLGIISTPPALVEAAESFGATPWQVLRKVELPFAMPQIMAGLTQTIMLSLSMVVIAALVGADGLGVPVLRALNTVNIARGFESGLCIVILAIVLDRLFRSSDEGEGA
T2 sequence (Q92N35 1-349 partner): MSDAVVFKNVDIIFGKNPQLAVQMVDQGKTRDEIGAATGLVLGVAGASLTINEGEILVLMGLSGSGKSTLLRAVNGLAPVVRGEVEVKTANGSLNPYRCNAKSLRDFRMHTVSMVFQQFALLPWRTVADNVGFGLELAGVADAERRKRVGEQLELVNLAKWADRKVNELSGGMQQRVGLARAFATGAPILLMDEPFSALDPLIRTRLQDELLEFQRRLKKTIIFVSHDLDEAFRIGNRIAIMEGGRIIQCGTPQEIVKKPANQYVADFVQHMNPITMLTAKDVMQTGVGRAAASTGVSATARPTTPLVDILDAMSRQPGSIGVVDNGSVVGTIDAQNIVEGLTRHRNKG

[3] = tested on: complete Cbc transporter CbcXWV (PAO1); format: cell-based, Pseudomonas aeruginosa; conditions: for Total uptake: pNcbcXWV; for choline uptake by CbcXWV: BT strain derivatives
[4] = tested on: cbcXWV from PAO1 in QAC transporter-deficient BT strain; format: cell-based, Pseudomonas aeruginosa; conditions: BT(pCbcPAO1), unlabelled competitor 0.5 mM, 10 min
CbcWV with CaiXB728a = format: cell-based, Pseudomonas syringae pv. syringae; conditions: MKH13; pNcbcWV, pT-B2916; SBP CaiXB728a; substrate 10 μM; single replication
CaiX with CbcWV = format: cell-based, Pseudomonas aeruginosa; conditions: MKH13; pNcbcWV, pT-PA5388; SBP CaiX; [^14C]carnitine 10 μM; competitor 1 mM
[5] = tested on: E. coli strains MKH13 and Acella; experiment: Total uptake by E. coli strains carrying empty vector; format: cell-based, Escherichia coli
[6] = host BT0028Ko, substrate 10 μM, mean (SE), n = 2
[7] = host BT2916Ko, substrate 10 μM, single replication
[8] = host BT3758Ko, substrate 10 μM, mean (SE), n = 3
[9] = Acella, pET15b, 1 mM IPTG, substrate 1 mM, single colony
[10] = MKH13, pME6041, radiolabelled substrate 1 mM, mean (SE), n = 10
[11] = host BT0028Ko, substrate 1 mM, mean (SE), n = 2
[12] = host BT2916Ko, substrate 1 mM, single replication
[13] = host BT3758Ko, substrate 1 mM, mean (SE), n = 3

Row | SMILES | % inhibition of uptake of substrate by unlabelled competitor (BetX with CbcWV) [%] | Total uptake [1, 6] | Total uptake [1, 7] | Total uptake [1, 8] | Total uptake (CbcXWV from DC3000) | Total uptake ([2]; host BT0028Ko, substrate 10 μM) | Total uptake [2, 7] | Total uptake ([2]; host BT3758Ko, substrate 10 μM) | % inhibition of uptake of substrate by unlabelled competitor (ChoXWV) [%] | Total uptake [3, 6] | Total uptake [3, 7] | Total uptake [3, 8] | % inhibition of uptake of [^14C]substrate ([4]; [^14C]betaine 5 μM) [%] | % inhibition of uptake of [^14C]substrate ([4]; [^14C]carnitine 5 μM) [%] | % inhibition of uptake of [^14C]substrate ([4]; [^14C]choline 5 μM) [%] | Total uptake (CbcWV with CaiXB728a) | % inhibition of uptake of substrate by unlabelled competitor (CaiX with CbcWV) [%] | Total uptake [5, 9] | Total uptake [5, 10] | further results
1 | C[N+](C)(C)C[C@H](O)CC(=O)[O-] [Carnitine, L-carnitine] | 3 | 16.3 (0.91) nmol (mg protein)^−1 | 0.3 nmol (mg protein)^−1 | 15.1 (0.16) nmol (mg protein)^−1 | 0.59 (0.82) nmol (mg protein)^−1 | 0.0 nmol (mg protein)^−1 | 0.1 nmol (mg protein)^−1 | 0.0 nmol (mg protein)^−1 | 41 | 7.0 (0.4) nmol (mg protein)^−1 | 0.5 nmol (mg protein)^−1 | 13.0 (0.3) nmol (mg protein)^−1 | 2 | 94 | 1 | 3.7 nmol (mg protein)^−1 | 91 | 0 nmol (mg protein)^−1 | 0.5 (0.3) nmol (mg protein)^−1 | 
2 | C[N+](C)(C)CCO [Choline, choline] | −8 | 0.11 (0.05) nmol (mg protein)^−1 | 0.15 nmol (mg protein)^−1 | 0.15 (0.05) nmol (mg protein)^−1 | 15.0 (2.4) nmol (mg protein)^−1 | 0.0 nmol (mg protein)^−1 | 0.0 nmol (mg protein)^−1 | 0.0 nmol (mg protein)^−1 | 98 | 18.2 (0.36) nmol (mg protein)^−1 | 16.2 nmol (mg protein)^−1 | 16.4 (0.18) nmol (mg protein)^−1 | −6 | 77 | 84 | 0 nmol (mg protein)^−1 | 5 | 0 nmol (mg protein)^−1 | 0.2 (0.1) nmol (mg protein)^−1 | Total uptake [1, 11]: 8.9 (1.4) nmol (mg protein)^−1; Total uptake [1, 12]: 8.6 nmol (mg protein)^−1; Total uptake [1, 13]: 7.1 (0.6) nmol (mg protein)^−1; Total uptake ([2]; host BT0028Ko, substrate 1 mM): 0 nmol (mg protein)^−1; Total uptake [2, 12]: 0 nmol (mg protein)^−1; Total uptake ([2]; host BT3758Ko, substrate 1 mM): 0 nmol (mg protein)^−1; choline uptake by CbcXWV ([3]; choline 10 μM (summary of Table 4)): 16 to 18 nmol (mg protein)^−1; choline uptake by CbcXWV ([3]; choline 1 mM (summary of Table 4)): 562–648 nmol (mg protein)^−1; share of choline uptake mediated by CbcX ([3]; at low (10 μM) and high (1 mM) [^14C]choline concentrations, BT derivatives): approximately 99%; Total uptake [3, 11]: 562 (6.8) nmol (mg protein)^−1; Total uptake [3, 12]: 644 nmol (mg protein)^−1; Total uptake [3, 13]: 648 (27.5) nmol (mg protein)^−1
3 | C[N+](C)(C)CC(=O)O [Betaine, glycine betaine] | 94 | 17.2 (0.2) nmol (mg protein)^−1 | 17.2 nmol (mg protein)^−1 | 0.1 (0.01) nmol (mg protein)^−1 | 17.0 (1.8) nmol (mg protein)^−1 | 0.0 nmol (mg protein)^−1 | 0.0 nmol (mg protein)^−1 | 0.0 nmol (mg protein)^−1 | 3 | 16.1 (0.41) nmol (mg protein)^−1 | 16.0 nmol (mg protein)^−1 | 14.3 (0.24) nmol (mg protein)^−1 | 83 | 84 | 9 | 0 nmol (mg protein)^−1 | 5 | 8.2 nmol (mg protein)^−1 | 0.5 (0.5) nmol (mg protein)^−1 | 
